Laboratory results: US20260306525A1, “COMBINATION THERAPY GLUCOCORTICOIDS AND GINSENOSIDE” (FYTAGORAS B.V., priority 2023, published 2026)

Columns and labels:
[1] = tested on: zebrafish embryos; details: in vivo
Description: Fish Embryo Acute Toxicity Test (FET) was performed to determine the tolerated doses of the studied compounds. […] A range of three test concentrations (100, 120, and 150 μM) of Rg1, Rh1, and F1 and (25, 50, and 75M) of PPT was used. […] Stock solutions were made in DMSO, and final dilutions in egg water (60 μg/mL Instant Ocean Sea salts and 0.0025% methylene blue), such that the final DMSO concentration were 0.01%. The following controls were used: a negative control (nC, egg water), a solvent control (sC, 0.01% DMSO in egg water), and positive control (pC), 4 mg/L 3,4-dichloroaniline (Sigma-Aldrich, St. Louis, MO, USA) in egg water.
Embryos were collected around at 1.5 hpf and distributed over standard twenty-four well plates (10 embryos per well), with each well containing 2 mL of test solution. […] Five 24-well plates were prepared, each with 3 wells containing the Rg1, F1, or Rh1 solutions (100, 120, 150 μM), 3 wells containing the PPT (25, 50, and 75 μM), two for nC and sC, and one for pC (on each plate, 7 wells remained empty). All solutions were refreshed daily.
The plates were kept at a temperature between 26 and 27° C. and exposed to a 12 h light and 12 h dark cycle. At 96, and 120 hpf, the average survival rate (in %) for all experimental groups was determined. Additionally, hatching was recorded at 48 and 72 hpf. Survival rates for the studied compound and pC-treated groups from the five individual plates were averaged.

[2] = tested on: GR protein; experiment: western blot GR protein level in HeLa cells; format: cell-based, human; details: for GR protein level, short-term: 6 h; for GR protein level, short-term / GR protein level, long-term: beclomethasone 1 μM, Rg1 20 μM or combination; for GR protein level, long-term: 24 h; for GR protein level in presence of cycloheximide (protein stability): long-term, with cycloheximide (5 μg/ml)
Description: (§1) HeLa (human cervical cancer) cells were cultured in Dulbecco's Modified Eagle's (DMEM) High Glucose (HG) medium without phenol red supplemented with 10% Fetal Calf Serum (FCS) and 10% Glutamax (Sigma-Aldrich). The cells were maintained at 37° C. and 5% CO2. At 24 h before adding the treatment, the medium was replaced by DMEM HG with 10% charcoal-inactivated serum and 10% Glutamax (Sigma-Aldrich). The cells were exposed to short- and long-term compound treatments. […] Subsequently, TNF-α (10 ng/ml) was added along with the compound treatments for 6 h (this last step was not added in the actinomycin-D and cycloheximide experiments).
Western blots were conducted to determine GR protein levels in HeLa cells. The cells were seeded as described previously in 6-well plates. The cells were exposed to short- and long-term compound treatments. […] Cells were harvested using trypsin (0.25% (v/v) trypsin in PBS, no EDTA), washed twice with PBS, and centrifuged. After centrifuging for 3 min at 3,000 rpm, cell pellets were stored at −80° C. until use. Cells were homogenized in potassium phosphate (KPi lysis buffer; 25 mM K2HPO4—KH2PO4 (pH 6.5)+0.1% (v/v) Triton X-100 (Merck, Darmstadt, Germany)) by sonication (20% amplitude, 3 s on, 3 s off for 4 cycles), using a Vibra-Cell™ VCX 130 sonicator (Sonics, Newtown, CT, USA), while on ice. The total protein concentration of the homogenates was determined using the Quickstart Bradford protein assay (Bio-Rad Laboratories) and measured using an EMax® plus microplate reader (Molecular Devices, Sunnyvale, CA, USA). HeLa cell homogenates (30 μg protein in 10 μl) were added to 30 μl Laemmli sample buffer, vortexed, and, boiled for 5 min at 98° C. Of each sample, 15 μl was loaded in duplicate on a 12% gradient precast SDS-PAGE gel (Bio-Rad Laboratories), and run for approximately 2 h at 90 V (no duplicates were used in the cycloheximide experiment). The experiments were performed 4 times (6 times for the cycloheximide experiment). After running the gel, proteins were transferred to a nitrocellulose membrane (Thermo Fisher Scientific) by using Bio-Rad Power Pac Basic Mini Electrophoresis System at 100 V for 1 h. The blot was washed in a blocking buffer (Tris-buffered saline containing 0.1% Tween-20 (TBST) with 3% BSA) 3 times for 15 min at room temperature. A primary GR antibody (Glucocorticoid Receptor Recombinant Rabbit Monoclonal Antibody (2D8, ThermoFisher Scientific)) at a 1:500 dilution in TBST with 3% BSA was added to the blots and incubated overnight at 4° C. The next day, the blot was washed with TBST 3 times for 5 min. Then, an HRP-conjugated anti-rabbit secondary antibody (Sigma-Aldrich) at 1:2000 dilution in TBST with 3% BSA was added and incubated at room temperature for 2 h. The blot was washed 3 times for 5 min in TBST with 3% BSA and twice for 5 min with TBST. The blot was incubated with 10 ml of Pierce™ enhanced chemiluminescence (ECL) western blotting substrate (ThermoFisher Scientific) for 1-2 min. Chemiluminescence was detected using a ChemiDoc MP imager (Bio-Rad Laboratories) at an exposure time of 1 min. The blot was washed 3 times for 5 min in TBST, then washed for 1 h in TBST with 3% BSA. A β-actin antibody (MA1-91399, ThermoFisher Scientific) was added at a 1:2000 dilution in TBST with 3% BSA to the blot and incubated overnight at 4° C. The next day, the blot was washed 3 times for 5 min in TBST with 3% BSA. Then, an HRP-conjugated anti-mouse secondary antibody (Sigma-Aldrich) at a 1:2000 dilution in TBST with 3% BSA was added and incubated at room temperature for 2 h. Subsequently, the blot was washed 3 times for 5 min in TBST. The blot was incubated with 10 ml of ECL substrate for 1-2 min, and chemiluminescence was visualized. The intensities of the GR and β-actin bands were quantified using ImageJ software, and the GR level was normalized to the level of β-actin.

[3] = tested on: SGK1; experiment: qPCR SGK1 expression in HeLa cells (GR transactivation); format: cell-based, human; details: beclomethasone 1 μM, Rg1 50 μM or combination
Description: as §1
(§2) To determine levels of gene expression in zebrafish larvae, 3 dpf larvae were used in both wounded and non-wounded conditions, and after short- and long-term treatments. Groups of 15 larvae were collected in TRIzol reagent (ThermoFisher) and total RNA was isolated using miRNeasy mini kit (Qiagen, Hilden, Germany). For experiments in HeLa cells, cells were seeded in 6 well plates and after treatment, the cells were removed from the wells using TRIzol reagent and mRNA was isolated using miRNeasy mini kit (Qiagen) according to the manufacturer's instructions. The RNA samples were DNAse-treated utilizing the DNA-free™ DNA Removal Kit (ThermoFisher Scientific). The cDNA synthesis was performed using the iScript cDNA synthesis kit (Bio-Rad Laboratories, Hercules, CA, USA) using 1 μg of RNA per sample. For qPCR, 10 μM of forward primer and 10 μM of reverse primer, 12.5 μl of IQ SYBR Green Supermix (Bio-Rad Laboratories), and 2 μl of cDNA were added to the qPCR reaction mixture. […] The qPCR reactions were performed on a MyiQ-single-color real-time PCR detection system (Bio-Rad Laboratories), with initial denaturation for 3 min, 95° C., and 40 cycles of 15 s at 95.5° C., 15 s at 60° C., and 30 s at 72° C. Cycle threshold values (Ct values, i.e. the cycle numbers at which a threshold value of the fluorescence intensity was reached) were determined for each sample. The gene expression level for each sample was normalized using the expression of ppial (peptidylprolyl isomerase Ab (cyclophilin A)) for zebrafish samples, and 18S rRNA for human cells. The fold change per sample (compared to the respective control group) was calculated using the […]Ct method.

[4] = tested on: GILZ; experiment: qPCR GILZ expression in HeLa cells (GR transactivation); format: cell-based, human; details: beclomethasone 1 μM, Rg1 50 μM or combination
Description: as §1, §2

Row | Structure (SMILES) | concentration until which no effects on hatching and survival were observed [1] | concentration with considerable effects on hatching and survival [1] | concentration with minimal effects on hatching and survival [1] | GR protein level, short-term [2] | GR protein level, long-term [2] | GR protein level in presence of cycloheximide (protein stability) [2] | SGK1 expression, long-term [3] | SGK1 expression, short-term [3] | GILZ expression, long-term [4] | GILZ expression, short-term [4]
1 | CC(C)=CCC[C@](C)(O)[C@H]1CC[C@]2(C)[C@@H]1[C@H](O)C[C@@H]1[C@@]3(C)CC[C@H](O)C(C)(C)[C@@H]3[C@@H](O)C[C@]12C [PPT, Protopanaxatriol] | 50 µM | 75 µM |  |  |  |  |  |  |  | 
2 | CC(C)=CCC[C@](C)(O[C@@H]1O[C@H](CO)[C@@H](O)[C@H](O)[C@H]1O)[C@H]1CC[C@]2(C)[C@@H]1[C@H](O)C[C@@H]1[C@@]3(C)CC[C@H](O)C(C)(C)[C@@H]3[C@@H](O)C[C@]12C [F1] | 100 µM |  | 120 µM |  |  |  |  |  |  | 
3 | C[C@H]1C[C@H]2[C@@H]3CCC4=CC(=O)C=C[C@]4(C)[C@@]3(Cl)[C@@H](O)C[C@]2(C)[C@@]1(O)C(=O)CO [beclomethasone, reference compound] |  |  |  | inhibited the expression of GR at both the mRNA and protein level | this inhibitory effect increased over time | protein stability is affected in a similar way as the mRNA levels by beclomethasone, and not Rg1 | reduced over time | strongly increased the expression of these genes after short-term treatment | reduced over time | strongly increased the expression of these genes after short-term treatment
4 | CC(C)=CCC[C@](C)(O[C@@H]1O[C@H](CO)[C@@H](O)[C@H](O)[C@H]1O)[C@H]1CC[C@]2(C)[C@@H]1[C@H](O)C[C@@H]1[C@@]3(C)CC[C@H](O)C(C)(C)[C@@H]3[C@@H](O[C@@H]3O[C@H](CO)[C@@H](O)[C@H](O)[C@H]3O)C[C@]12C [Rg1, (3β,6α, 12β)-3,12-Dihydroxydammar-24-ene-6,20-diyl bis-β-D-glucopyranoside] |  |  |  | did not affect the GR mRNA or GR protein level | did not affect the GR mRNA or GR protein level | protein stability is affected in a similar way as the mRNA levels by beclomethasone, and not Rg1 | did not affect the expression of these genes | did not affect the expression of these genes | did not affect the expression of these genes | did not affect the expression of these genes
